Tests used:
[1] = test system: B. subtilis 168; test: fitness (endpoint OD595 vs no drug) (fraction); higher = more growth
Procedure, shortened: (§1)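 Bacterial growth was followed in 384-well plates seeded at OD595 0.01, with 30 µl per well, or 55 µl for S. pneumoniae, in TSB, LB Lennox or CY at 37 °C. OD595 was read every 30 min for 14 h, and each reading had the first reading subtracted as background. Fitness is the background-corrected optical density at entry into stationary phase divided by the robust mean of the no-drug control wells. This ratio is capped at 1.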

[2] = test system: S. aureus Newman; test: as above; details: one replicate
Procedure, shortened: as §1

[3] = test system: S. pneumoniae D39V; test: Bliss interaction score (quartile over a dose matrix) (fitness difference); higher = more antagonism (negative = synergy)
Procedure, shortened: (§2)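 Fitness here means normalised growth, inferred for single drugs from the combination data. Growth was OD595 at entry into stationary phase, divided by the plate's robust no-drug mean and capped at 1. The Bliss score is observed minus expected fitness, with the expectation being the product, and its quartiles span technical, biological and donor/recipient replicates.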

[4] = test system: S. aureus DSM 20231; test: as above
Procedure, shortened: as §2

[5] = test system: B. subtilis 168; test: as above
Procedure, shortened: as §2

[6] = test system: S. aureus Newman; test: as above
Procedure, shortened: as §2
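Wherever Bliss interaction score (quartile over a dose matrix) is given: first quartile when negative (synergy) and third quartile when positive (antagonism).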

CO/N=C(\C(=O)N[C@@H]1C(=O)N2C(C(=O)O)=C(COC(C)=O)CS[C@H]12)c1csc(N)n1 [Cefotaxime] + CO/N=C(\C(=O)N[C@@H]1C(=O)N2C(C(=O)O)=C(COC(N)=O)CS[C@H]12)c1ccco1 [Cefuroxime]
fitness, [1], one replicate
Details	first compound 0.00775 µg/mL	first compound 0.0155 µg/mL	first compound 0.031 µg/mL	first compound 0.0625 µg/mL	first compound 0.125 µg/mL	first compound 0.25 µg/mL	first compound 0.5 µg/mL	first compound 1 µg/mL	first compound 2 µg/mL
partner 0.04875 µg/mL	–	–	–	0.421	0.41	0.354	0.0782	0.0681	0.0589
partner 0.0975 µg/mL	–	–	–	0.492	0.444	0.451	0.0682	0.0388	0.0337
partner 0.195 µg/mL	0.236	0.172	0.176	0.329	0.331	0.305	0.0838	0.0517	0.0469
partner 0.39 µg/mL	0.194	0.121	0.138	–	–	–	–	–	–
partner 0.78 µg/mL	0.147	0.0786	0.0789	–	–	–	–	–	–
partner 1.562 µg/mL	–	–	–	–	–	–	0.308	0.139	0.161
partner 3.125 µg/mL	–	–	–	–	–	–	0.286	0.1	0.138
partner 6.25 µg/mL	–	–	–	–	–	–	0.261	0.114	0.0944

fitness, [2]
Details	first compound 0.078 µg/mL	first compound 0.156 µg/mL	first compound 0.312 µg/mL
partner 0.04875 µg/mL	0.834	0.698	0.384
partner 0.0975 µg/mL	0.798	0.574	0.295
partner 0.195 µg/mL	0.84	0.596	0.237

Details	Bliss interaction score
[3]	-0.0369
[4]	0.107
[5]	0.0852
[6]	-0.0451

CO/N=C(\C(=O)N[C@@H]1C(=O)N2C(C(=O)O)=C(COC(N)=O)CS[C@H]12)c1ccco1 [Cefuroxime] + CC1=C(C(=O)O)N2C(=O)[C@@H](NC(=O)[C@H](N)c3ccccc3)[C@H]2SC1 [Cephalexin]
fitness, [1], one replicate
Details	first compound 0.04875 µg/mL	first compound 0.0975 µg/mL	first compound 0.195 µg/mL	first compound 1.562 µg/mL	first compound 3.125 µg/mL	first compound 6.25 µg/mL
partner 0.125 µg/mL	0.871	0.73	0.654	0.31	0.24	0.218
partner 0.25 µg/mL	–	–	–	0.236	0.238	0.197
partner 0.5 µg/mL	–	–	–	0.24	0.179	0.109
partner 1 µg/mL	0.545	0.533	0.354	–	–	–

fitness
Details	first compound 0.04875 µg/mL	first compound 0.0975 µg/mL	first compound 0.195 µg/mL
[1], partner 0.25 µg/mL	0.709	0.683	0.507
[1], partner 0.5 µg/mL	0.729	0.706	0.527
[2], partner 0.5 µg/mL	0.925	0.883	0.943
[2], partner 1 µg/mL	0.99	0.917	0.941
[2], partner 2 µg/mL	≥ 1	0.967	0.949

Details	Bliss interaction score
[3]	0.0313
[4]	0.0711
[5]	-0.0402
[6]	-0.0321

CO/N=C(\C(=O)N[C@@H]1C(=O)N2C(C(=O)O)=C(COC(N)=O)CS[C@H]12)c1ccco1 [Cefuroxime] + CC1=C\[C@@H](O)CC(=O)Cc2nc(co2)C(=O)N2CCC=C2C(=O)O[C@H](C(C)C)[C@H](C)/C=C/C(=O)NC\C=C\1 [Virginiamycin M1]
fitness
Details	partner 0.0625 µg/mL	partner 0.125 µg/mL	partner 0.25 µg/mL
[1], first compound 0.04875 µg/mL	–	0.76	–
[1], first compound 0.195 µg/mL	0.558	0.555	0.538
[2], first compound 0.04875 µg/mL	0.927	0.952	0.943
[2], first compound 0.0975 µg/mL	0.963	0.992	0.965
[2], first compound 0.195 µg/mL	0.89	0.944	0.893

fitness, [1], one replicate
Details	first compound 1.562 µg/mL	first compound 3.125 µg/mL	first compound 6.25 µg/mL
partner 0.0625 µg/mL	0.334	0.259	0.239
partner 0.125 µg/mL	0.325	0.26	0.208
partner 0.25 µg/mL	0.309	0.217	0.182

Details	Bliss interaction score
[3]	-0.0415
[4]	0.103
[5]	0.0564
[6]	-0.0495

CO/N=C(\C(=O)N[C@@H]1C(=O)N2C(C(=O)O)=C(COC(N)=O)CS[C@H]12)c1ccco1 [Cefuroxime] + CC(C1CCC(C(O1)OC2C(CC(C(C2O)OC3C(C(C(CO3)(C)O)NC)O)N)N)N)NC [Gentamicin]
fitness, main component drawn
Details	first compound 0.04875 µg/mL	first compound 0.0975 µg/mL	first compound 0.195 µg/mL
[1], partner 0.0625 µg/mL	0.708	0.675	0.587
[1], partner 0.125 µg/mL	–	0.379	0.0507
[1], partner 0.25 µg/mL	0.0653	0.0449	0.0518
[2], partner 1 µg/mL	0.937	0.923	0.942
[2], partner 2 µg/mL	0.867	0.723	0.628
[2], partner 4 µg/mL	0.0568	0.0486	0.0654

fitness, [1], one replicate, main component drawn
Details	first compound 0.39 µg/mL	first compound 0.78 µg/mL	first compound 1.562 µg/mL	first compound 3.125 µg/mL	first compound 6.25 µg/mL
partner 0.0625 µg/mL	0.6	0.549	0.249	0.0632	0.0658
partner 0.125 µg/mL	0.202	0.142	0.0288	0.0271	0.0297
partner 0.25 µg/mL	0.152	0.0935	0.0323	0.029	0.0215

main component drawn
Details	Bliss interaction score
[3]	-0.0232
[4]	-0.313
[5]	0.0914
[6]	-0.165

Reference: the supplement of paper PMC10627819
